Assay results taken from US4206120A, “Oxaazabicycloheptane antibiotics” (Beecham Group Limited, priority 1976, dated 1980).

Assays:
mice = assay: Acute toxicity in mice, subcutaneous; assay type: in vivo
[1] = molecular target: Lactamase, Proteus mirabilis C889; assay: Lactamase inhibition, enzyme from Proteus mirabilis C889; assay type: biochemical; settings: source of enzyme Proteus mirabilis C889
[2] = molecular target: T1, Lactamase, Enterobacter P99 (Enterobacter cloacae, UniProt P05364); assay: Lactamase inhibition, enzyme from Enterobacter P99; assay type: biochemical; settings: source of enzyme Enterobacter P99; read-out: Lactamase inhibition I50 (converted)
T1 construct: Source of; endogenous in cells; host or cells: Enterobacter (cloacae) strain P99

[3] = molecular target: Lactamase, Kleb. aerogenes E70; assay: Lactamase inhibition, enzyme from Kleb. aerogenes E70; assay type: biochemical; settings: source of enzyme Kleb. aerogenes E70
[4] = molecular target: T2, Lactamase, Staph. aureus Russell (Staphylococcus aureus, UniProt P00807); assay: Lactamase inhibition, enzyme from Staph. aureus Russell; assay type: biochemical; settings: source of enzyme Staph. aureus Russell; read-out: Lactamase inhibition I50 (converted)
T2 construct: Source of; endogenous in cells; host or cells: Staphylococcus aureus strain Russell

Lactamase, E. coli JT 4 = molecular target: T3, Lactamase, E. coli JT 4 (Escherichia coli, UniProt P62593); assay: Lactamase inhibition, enzyme from E. coli JT 4; assay type: biochemical; settings: source of enzyme E. coli JT 4; read-out: Lactamase inhibition I50 (converted)
T3 construct: Source of; endogenous in cells; host or cells: Escherichia coli strain JT 4

[5] = molecular target: T4, Lactamase, Pseudomonas aerogenosa Dalgleish (Pseudomonas aeruginosa, UniProt P16897); assay: Lactamase inhibition, enzyme from Pseudomonas aerogenosa Dalgleish; assay type: biochemical; settings: source of enzyme Pseudomonas aerogenosa Dalgleish; read-out: Lactamase inhibition I50 (converted)
T4 construct: Source of; endogenous in cells; host or cells: Pseudomonas aeruginosa strain Dalgleish

Klebsiella aerogenes E70 = assay: Effect on MIC of ampicillin against β-lactamase producing bacteria, Klebsiella E 70; assay type: cell-based; settings: ampicillin alone
Procedure: (§1) a. Compounds of this invention were tested by conventional methods to determine their effect on the MIC (minimum inhibitory concentration) values of ampicillin against certain β-lactamase producing bacteria. The results for the compounds of the formula [drawing 124] were as follows: […]

[6] = test system: Staphylococcus aureus Russell; assay: Effect on MIC of ampicillin against β-lactamase producing bacteria, Staphylococcus aureus Russell; assay type: cell-based; settings: ampicillin alone, Staph. aureus Russell
Procedure: as §1

T1 sequence (P05364 21-381): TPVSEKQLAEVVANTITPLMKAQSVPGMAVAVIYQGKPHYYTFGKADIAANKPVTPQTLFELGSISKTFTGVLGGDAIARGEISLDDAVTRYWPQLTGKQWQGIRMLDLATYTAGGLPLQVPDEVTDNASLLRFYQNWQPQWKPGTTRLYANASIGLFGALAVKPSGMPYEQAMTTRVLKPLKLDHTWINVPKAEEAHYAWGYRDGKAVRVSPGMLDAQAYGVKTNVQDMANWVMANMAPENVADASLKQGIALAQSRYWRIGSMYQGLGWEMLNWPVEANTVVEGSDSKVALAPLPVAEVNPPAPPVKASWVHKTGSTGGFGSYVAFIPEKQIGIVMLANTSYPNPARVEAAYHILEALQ
T4 sequence (P16897 18-288): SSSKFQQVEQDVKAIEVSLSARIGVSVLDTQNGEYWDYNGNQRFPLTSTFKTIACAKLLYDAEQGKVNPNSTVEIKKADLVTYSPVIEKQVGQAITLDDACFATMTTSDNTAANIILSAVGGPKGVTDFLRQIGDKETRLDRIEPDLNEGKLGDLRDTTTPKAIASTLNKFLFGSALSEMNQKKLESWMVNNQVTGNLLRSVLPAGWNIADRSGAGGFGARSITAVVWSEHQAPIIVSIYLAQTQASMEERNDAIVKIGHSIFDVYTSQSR
T2 sequence (P00807 25-281): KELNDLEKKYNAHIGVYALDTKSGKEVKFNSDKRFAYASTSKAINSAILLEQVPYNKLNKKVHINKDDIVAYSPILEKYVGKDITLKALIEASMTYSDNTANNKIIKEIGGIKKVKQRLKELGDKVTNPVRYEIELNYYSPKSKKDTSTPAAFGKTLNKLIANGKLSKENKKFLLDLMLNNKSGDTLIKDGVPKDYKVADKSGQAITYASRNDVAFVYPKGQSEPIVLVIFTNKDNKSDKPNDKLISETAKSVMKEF
T3 sequence (P62593 24-286 limits assumed): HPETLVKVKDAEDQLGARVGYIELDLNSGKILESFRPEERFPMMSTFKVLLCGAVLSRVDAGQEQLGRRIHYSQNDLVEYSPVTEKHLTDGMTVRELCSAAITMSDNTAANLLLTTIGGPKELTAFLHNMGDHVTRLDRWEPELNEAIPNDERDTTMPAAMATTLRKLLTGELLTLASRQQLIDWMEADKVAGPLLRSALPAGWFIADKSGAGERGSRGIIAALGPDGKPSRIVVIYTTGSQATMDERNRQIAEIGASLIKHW

| SMILES | Lactamase inhibition I50 [1] [µg/mL] | IC50 [2] [µM] | Lactamase inhibition I50 [3] [µg/mL] | IC50 [4] [µM] | IC50 (Lactamase, E. coli JT 4) [µM] | IC50 [5] [µM] | other results |
| --- | --- | --- | --- | --- | --- | --- | --- |
| O=C(O)[C@H]1/C(=C/c2ccccc2)O[C@@H]2CC(=O)N21 (relative stereo) [Z1=CO2 Na, Z2=H, Z3=C6 H5, Sodium (Z)-(2RS,5RS)-(3-benzylidene)-7-oxo-4-oxa-1-azabicyclo[3,2,0]-heptane-2-carboxylate] | – | – | – | – | – | – | deaths in a group of mice (mice; subcutaneously at 1000 mg/kg): did not cause any deaths |
| C[C@@H](NC(=O)/C=C1\CN2C(=O)C[C@H]2O1)c1ccccc1 [Example 5-R-epimer, (E)-5-R-3-[N-(R-1-Phenylethyl)carbamoylmethylene]-4-oxa-1-azabicyclo [3.2.0]heptan-7-one] | 0.6 | 1.47 | 2.4 | 0.918 | 1.47 | 2.39 | – |
| C[C@@H](NC(=O)/C=C1\CN2C(=O)C[C@@H]2O1)c1ccccc1 [Example 5-S-epimer, (E)-5-S-[N-(R-1-Phenylethyl)carbamoylmethylene]-4-oxa-1-azabicyclo[3.2.0]heptan-7-one] | 8.8 | 4.41 | > 40 | 47.7 | 21.3 | 64.6 | – |
| O=C(O)/C(=C1\CN2C(=O)CC2O1)c1ccccc1 (stereo not shown) [Z1=H, Z2=CO2 Na, Z3=C6 H5, Sodium (E)-7-oxo-4-oxa-1-azabicyclo[3.2.0]heptane-3-(benzylidene-1-carboxylate)] | – | – | – | – | – | – | deaths in a group of mice (mice; subcutaneously at 250 mg/kg): did not cause any deaths |
| CC1(C)S[C@@H]2[C@H](NC(=O)[C@H](N)c3ccccc3)C(=O)N2[C@H]1C(=O)O [ampicillin] | – | – | – | – | – | – | MIC (Klebsiella aerogenes E70): > 2000 µg/mL; MIC [6]: 250 µg/mL |
